Results published in patent publication US8623860B2, “Azetidine derivatives, pharmaceutical compositions and uses thereof” (Boehringer Ingelheim International GmbH, priority 2011, dated 2014).

Target: human ACC2 (Homo sapiens (Human), UniProt O00763)
Assay: ACC2 assay, spectrophotometric 384 well assay (NADH-linked, coupled lactate dehydrogenase/pyruvate kinase reaction)
Format: biochemical
Details: hACC2 construct lacking the 128 N-terminal amino acids; 25° C., 340 nm, 15 minutes
Protocol: Spectrophotometric 384 Well Assay
Malonyl CoA formation by acetyl CoA carboxylases is stoichometrically linked to the consumption of ATP. ACC2 activity is measured in a NADH-linked kinetic method measuring ADP generated during the ACC reaction using a coupled lactate dehydrogenase/pyruvate kinase reaction.
For biological testing, a human ACC2 construct which lacks the 128 amino acids at the N-terminus for increased solubility (nt 385-6966 in Genbank entry AJ575592) is cloned. The protein is then expressed in insect cells using a baculoviral expression system. Protein purification is performed by anion exchange.
All compounds are dissolved in dimethyl sulfoxide (DMSO) to a concentration of 10 mM.
Assay reactions are then carried out in 384-well plates, with hACC2 in an appropriate dilution and at final assay concentrations (f.c.) of 100 mM Tris (pH 7.5), 10 mM trisodium citrate, 25 mM KHCC3, 10 mM MgCl2, 0.5 mg/ml BSA, 3.75 mM reduced L-glutathione, 15 U/ml lactate dehydrogenase, 0.5 mM phosphoenolpyruvate, 15 U/ml pyruvate kinase, compounds at different concentrations at final DMSO concentrations of 1%.
The enzymatic reaction is then started by addition of a mixture of NADH, acetyl Coenzyme A (both 200 μM f.c.) and ATP (500 uM f.c.). The decrease of the optical density (slope S) is then determined at 25° C. at a wavelength of 340 nm over 15 minutes in a spectrophotometric reader.
Each assay microtiter plate contains wells with vehicle instead of compound as controls for the non-inhibited enzyme (100% CTL; ‘HIGH’) and wells without acetyl-CoA as controls for non-specific NADH degradation (0% CTL; ‘LOW’).
The slope S is used for calculation of % CTL=(S(compound)−S(‘LOW’))/(S(‘HIGH’)−S(‘LOW’))*100. Compounds will give values between 100% CTL (no inhibition) and 0% CTL (complete inhibition).
For IC50 value determination, the sample slope in the presence of the test compound after subtraction of the low controls (S(compound)−S(‘LOW’)) are used.
An IC50 value is derived from the compound slopes at different dosages after subtraction of the low controls (S(compound)−S(‘LOW’)) by non-linear regression curve fitting (equation y=(A+((B−A)/(1+((C/x)^D))))).
In the following table the activity expressed as IC50 (μM) of compounds according to the invention is presented wherein the IC50 values are determined in the ACC2 assay as described hereinbefore. The term “Ex.” refers to the example numbers according to the following experimental section.

Sequence of human ACC2 (O00763 129-2458): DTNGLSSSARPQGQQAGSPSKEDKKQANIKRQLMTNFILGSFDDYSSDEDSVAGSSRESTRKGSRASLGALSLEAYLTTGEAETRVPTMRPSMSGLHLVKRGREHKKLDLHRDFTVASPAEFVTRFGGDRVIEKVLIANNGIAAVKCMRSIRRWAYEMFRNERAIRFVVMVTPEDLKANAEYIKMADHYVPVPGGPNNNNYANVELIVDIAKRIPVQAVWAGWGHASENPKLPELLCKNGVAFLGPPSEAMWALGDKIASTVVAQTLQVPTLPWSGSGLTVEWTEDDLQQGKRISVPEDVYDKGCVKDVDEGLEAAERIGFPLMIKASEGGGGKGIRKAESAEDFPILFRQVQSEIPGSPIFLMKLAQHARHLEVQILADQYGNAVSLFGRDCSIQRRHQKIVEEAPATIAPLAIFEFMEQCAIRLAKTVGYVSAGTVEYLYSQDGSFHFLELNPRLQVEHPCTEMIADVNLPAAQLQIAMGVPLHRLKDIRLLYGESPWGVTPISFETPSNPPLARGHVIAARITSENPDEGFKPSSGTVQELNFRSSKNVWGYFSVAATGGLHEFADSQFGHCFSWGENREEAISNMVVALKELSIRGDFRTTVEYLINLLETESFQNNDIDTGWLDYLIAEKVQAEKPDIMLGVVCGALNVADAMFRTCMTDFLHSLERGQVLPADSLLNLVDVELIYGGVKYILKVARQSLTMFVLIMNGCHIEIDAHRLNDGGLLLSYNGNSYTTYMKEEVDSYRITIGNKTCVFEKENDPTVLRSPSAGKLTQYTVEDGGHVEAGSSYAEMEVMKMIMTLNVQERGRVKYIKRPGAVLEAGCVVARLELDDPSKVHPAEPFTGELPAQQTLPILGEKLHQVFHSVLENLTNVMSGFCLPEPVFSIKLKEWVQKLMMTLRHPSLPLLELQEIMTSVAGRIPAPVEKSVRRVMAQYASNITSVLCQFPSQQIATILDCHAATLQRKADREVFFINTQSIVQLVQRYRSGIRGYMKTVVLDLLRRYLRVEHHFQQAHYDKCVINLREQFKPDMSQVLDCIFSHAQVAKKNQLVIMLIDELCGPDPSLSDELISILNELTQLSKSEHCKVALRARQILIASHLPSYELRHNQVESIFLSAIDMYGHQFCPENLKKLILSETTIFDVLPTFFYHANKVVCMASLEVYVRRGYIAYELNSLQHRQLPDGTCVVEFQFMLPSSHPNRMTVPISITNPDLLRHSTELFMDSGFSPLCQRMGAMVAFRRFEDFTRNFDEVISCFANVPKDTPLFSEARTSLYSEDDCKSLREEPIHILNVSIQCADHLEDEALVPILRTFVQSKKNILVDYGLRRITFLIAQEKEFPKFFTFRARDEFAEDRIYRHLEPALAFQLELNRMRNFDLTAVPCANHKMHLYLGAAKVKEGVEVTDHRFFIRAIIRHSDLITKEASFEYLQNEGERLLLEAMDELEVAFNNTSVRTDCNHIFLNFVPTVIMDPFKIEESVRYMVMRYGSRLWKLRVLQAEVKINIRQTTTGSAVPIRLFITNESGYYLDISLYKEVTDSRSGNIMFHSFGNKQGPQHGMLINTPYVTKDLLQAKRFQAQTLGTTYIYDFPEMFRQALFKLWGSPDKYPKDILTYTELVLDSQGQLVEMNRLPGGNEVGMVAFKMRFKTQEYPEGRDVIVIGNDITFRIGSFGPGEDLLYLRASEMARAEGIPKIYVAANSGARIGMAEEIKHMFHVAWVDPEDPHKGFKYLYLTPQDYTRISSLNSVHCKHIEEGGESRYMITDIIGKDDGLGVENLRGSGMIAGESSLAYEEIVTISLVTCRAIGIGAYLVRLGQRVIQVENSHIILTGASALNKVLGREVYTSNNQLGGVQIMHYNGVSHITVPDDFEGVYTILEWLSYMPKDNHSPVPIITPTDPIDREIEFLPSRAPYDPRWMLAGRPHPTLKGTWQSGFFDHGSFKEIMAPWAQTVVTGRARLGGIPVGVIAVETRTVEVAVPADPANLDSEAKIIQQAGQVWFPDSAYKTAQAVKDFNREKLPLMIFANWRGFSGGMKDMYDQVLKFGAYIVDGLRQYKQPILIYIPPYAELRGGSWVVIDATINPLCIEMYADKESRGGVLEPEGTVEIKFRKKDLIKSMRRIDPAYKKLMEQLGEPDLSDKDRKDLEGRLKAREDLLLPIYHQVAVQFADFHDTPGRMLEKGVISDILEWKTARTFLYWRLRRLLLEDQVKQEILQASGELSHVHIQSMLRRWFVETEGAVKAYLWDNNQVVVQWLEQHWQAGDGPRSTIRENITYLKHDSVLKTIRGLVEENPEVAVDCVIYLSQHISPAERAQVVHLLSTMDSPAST

SMILES | IC50 [nM]
CC(Cc1ccc(C2CN(c3ccc(OCC4CC4)cc3)C2)cc1)NC(=O)C(C)F (stereo not shown) [Example 3.09] | 2510
CCC(=O)NC(C)Cc1ccc(C2CN(c3ccc(OCC4CC4)cc3)C2)cc1 (stereo not shown) [Example 3.10] | 890
CC(Cc1ccc(C2CN(c3ccc(OCC4CC4)cc3)C2)cc1)NC(=O)C(C)(F)F (stereo not shown) [Example 3.11] | 1450
CC(Cc1ccc(C2CN(c3ccc(OCC4CC4)cc3)C2)cc1)NC(=O)C(F)F (stereo not shown) [Example 3.12] | 2730
CC(Cc1ccc(C2CN(c3ccc(OCC4CC4)cc3)C2)cc1)NC(=O)Cc1cc[nH]c1 (stereo not shown) [Example 3.13] | 2970
CC(Cc1ccc(C2CN(c3ccc(OCC4CC4)cc3)C2)cc1)NC(=O)CF (stereo not shown) [Example 3.14] | 1770
CC(=O)Nc1nc(C)c(C(=O)NC(C)Cc2ccc(C3CN(c4ccc(OCC5CC5)cc4)C3)cc2)s1 (stereo not shown) [Example 3.15] | 1050
COCC(=O)NC(C)Cc1ccc(C2CN(c3ccc(OCC4CC4)cc3)C2)cc1 (stereo not shown) [Example 3.16] | 3050
Cc1nocc1C(=O)NC(C)Cc1ccc(C2CN(c3ccc(OCC4CC4)cc3)C2)cc1 (stereo not shown) [Example 3.17] | 2790
CC(Cc1ccc(C2CN(c3ccc(OCC4CC4)cc3)C2)cc1)NC(=O)CCC#N (stereo not shown) [Example 3.18] | 3050
C=CCC(=O)NC(C)Cc1ccc(C2CN(c3ccc4c(c3)OCCO4)C2)cc1 (stereo not shown) [Example 3.19] | 2880
C[C@H](NC(=O)C1CCOC1)c1ccc(C2CN(c3ccc(OCC4CC4)cc3)C2)cc1 (stereo partly shown) [Example 3.20] | 1020
C[C@H](NC(=O)Cc1cc[nH]c1)c1ccc(C2CN(c3ccc(OCC4CC4)cc3)C2)cc1 [Example 3.21] | 2960
CCOCC(=O)N[C@@H](C)c1ccc(C2CN(c3ccc(OCC4CC4)cc3)C2)cc1 [Example 3.22] | 2580
COC1CC(C(=O)N[C@@H](C)c2ccc(C3CN(c4ccc(OCC5CC5)cc4)C3)cc2)C1 (stereo partly shown) [Example 3.23] | 2650
C[C@H](NC(=O)Cc1cccnc1)c1ccc(C2CN(c3ccc(OCC4CC4)cc3)C2)cc1 [Example 3.24] | 1670

SMILES | IC50 [nM]
Cc1ncsc1C(=O)N[C@@H](C)c1ccc(C2CN(c3ccc(OCC4CC4)cc3)C2)cc1 [Example 3.25] | 3010
C[C@H](NC(=O)C1(C)CC1)c1ccc(C2CN(c3ccc(OCC4CC4)cc3)C2)cc1 [Example 3.26] | 2420
C[C@H](NC(=O)C1CCCCO1)c1ccc(C2CN(c3ccc(OCC4CC4)cc3)C2)cc1 (stereo partly shown) [Example 3.27] | 2860
CC(C#N)C(=O)N[C@@H](C)c1ccc(C2CN(c3ccc(OCC4CC4)cc3)C2)cc1 (stereo partly shown) [Example 3.28] | 1210
C[C@H](NC(=O)Cn1cncn1)c1ccc(C2CN(c3ccc(OCC4CC4)cc3)C2)cc1 [Example 3.29] | 1670
COCCC(=O)N[C@@H](C)c1ccc(C2CN(c3ccc(OCC4CC4)cc3)C2)cc1 [Example 3.30] | 2060
CC(=O)Nc1nc(C(=O)N[C@@H](C)c2ccc(C3CN(c4ccc(OCC5CC5)cc4)C3)cc2)cs1 [Example 3.31] | 1640
CC(C)C(=O)N[C@@H](C)c1ccc(C2CN(c3ccc(OCC4CC4)cc3)C2)cc1 [Example 3.32] | 1760
C[C@H](NC(=O)C1CC(F)C1)c1ccc(C2CN(c3ccc4c(c3)OCCO4)C2)cc1 (stereo partly shown) [Example 3.33] | 2870
C[C@H](NC(=O)C1CNC(=O)C1)c1ccc(C2CN(c3ccc(OCC4CC4)cc3)C2)cc1 (stereo partly shown) [Example 3.34] | 2730
C[C@H](NC(=O)C1(C#N)CC1)c1ccc(C2CN(c3ccc(OCC4CC4)cc3)C2)cc1 [Example 3.35] | 1460
CC(=O)Nc1cccc(C(=O)N[C@@H](C)c2ccc(C3CN(c4ccc(OCC5CC5)cc4)C3)cc2)c1 [Example 3.36] | 2190
C[C@H](NC(=O)C1CC(F)C1)c1ccc(C2CN(c3ccc(OCC4CC4)cc3)C2)cc1 (stereo partly shown) [Example 3.37] | 1170
Cc1nc(C(=O)N[C@@H](C)c2ccc(C3CN(c4ccc(OCC5CC5)cc4)C3)cc2)c(C)s1 [Example 3.38] | 1410
C[C@H](NC(=O)c1ccns1)c1ccc(C2CN(c3ccc(OCC4CC4)cc3)C2)cc1 [Example 3.39] | 1520
